Molecules are shown by their SMILES. *1 amine or outer side, *2 acyl side, *3 side chain or, on linkers, in order; H or OH if unused. Where a SMILES comes first, the peptide text is derived from it. Bridges are numbered along the chain shown (N, C = ends). [ ]: non-standard residue; d: D form. The star is where a group is joined. 2Nal = N[C@@H](Cc1ccc2ccccc2c1)C(=O)O; AEF = NCCOc1ccc(C[C@H](N)C(=O)O)cc1; X1 = O=C(Cc1ccc(CN[*:1])cc1)[*:2]; 3Pal = N[C@@H](Cc1cccnc1)C(=O)O; αMeL = CC(C)C[C@](C)(N)C(=O)O; CH2COCH2 = O=C(C[*:1])C[*:2]; Pyrrolidide = C1CCN(*)C1; Dab = NCC[C@H](N)C(=O)O; βAla = NCCC(=O)O

The first test deals with T1, human IL-23R (Homo sapiens, UniProt Q5VWK5).
T1 sequence (Q5VWK5 22-629): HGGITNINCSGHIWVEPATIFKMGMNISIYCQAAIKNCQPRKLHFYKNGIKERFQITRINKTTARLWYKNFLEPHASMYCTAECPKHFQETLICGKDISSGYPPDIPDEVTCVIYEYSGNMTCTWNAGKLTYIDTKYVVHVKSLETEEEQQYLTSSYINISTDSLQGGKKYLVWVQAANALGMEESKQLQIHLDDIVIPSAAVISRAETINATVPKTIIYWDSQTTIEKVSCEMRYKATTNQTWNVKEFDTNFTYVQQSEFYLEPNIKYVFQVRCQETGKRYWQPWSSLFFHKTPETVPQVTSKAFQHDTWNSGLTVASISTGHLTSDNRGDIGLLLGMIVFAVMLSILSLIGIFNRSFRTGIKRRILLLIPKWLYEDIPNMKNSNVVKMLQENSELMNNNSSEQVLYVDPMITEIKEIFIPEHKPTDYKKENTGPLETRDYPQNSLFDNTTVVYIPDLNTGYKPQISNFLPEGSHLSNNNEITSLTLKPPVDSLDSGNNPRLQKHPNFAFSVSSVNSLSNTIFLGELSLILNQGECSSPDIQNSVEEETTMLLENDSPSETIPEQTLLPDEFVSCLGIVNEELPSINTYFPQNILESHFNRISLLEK
Briefly: biochemical.
Conditions: not given
The source says: The compound binding affinity for IL-23R was estimated by the ability of compounds to displace a fluorophore-labelled reference compound from the human IL-23R. The assay principle relies on Bioluminescence Resonance Energy Transfer (BRET) between a fluorophore-labelled reference compound binding to the IL-23R part of a fusion protein consisting of the IL-23R fused to a Nanoluc luciferase enzyme (Nanoluc). The Nanoluc is placed in the N-terminus in close proximity to the binding domain of the ligand. Upon close proximity between the fluorophore of the fluorophore-labelled compound and the Nanoluc of the fusion protein, bioluminescence energy generated from conversion of a Nanoluc substrate, is transferred to the fluorophore resulting in an increase in BRET. In presence of an unlabelled compound, the unlabelled compound displaces the fluorophore-labelled peptide from its binding site resulting in a decrease in BRET. The concentration for which half of the fluorophore-labelled peptide is displaced by the unlabelled compound depends on the affinity of the compound for the IL-23R, and is termed the IC50 concentration.
The plasmid also contained a gene to confer resistance for the antibiotic hygromycin. A cell line stably expressing the Nluc-IL23R fusion protein was generated by transfection of HEK293 cells with the expression plasmid and selected with hygromycin for 3 weeks in Growth medium consisting of DMEM w/ Glutamax-I containing, 10% V/V FBS, 1% V/V P/S, 1 mM Sodium Pyruvate, and 1X NEAA, and 0.3 mg/mL hygromycin. The remaining cells were propagated and considered a stable expressing Nluc-IL23R fusion protein pool clone.
Cells expressing the Nluc-IL23R fusion protein were expanded in Growth medium and membranes prepared by homogenization of a cell pellet from 18 T175 flasks (4 °C in subsequent steps). The cell pellet was lysed Tris 10 mM, 7.5, 1 mM EDTA and protease inhibitors (Complete, Roche) and homogenized using a 15 mL glass-dounce by 50 strokes. The homogenate was spun at spin @1500 rpm for 10 min, the supernatant transferred to SV-34 tubes and spun at 40000g for 20 min at 4 °C to pellet the crude membranes. The supernatant was then removed, the pellet resuspended in 5 mL buffer containing 50 mM HEPES pH 7.4, 5 mM EGTA, and 5 mM MgCl2, and homogenized. Aliquots of the resuspended and homogenized membranes containing the Nluc-IL23R fusion protein were stored at -80 °C until use.
The plate was sealed with light impermeable plate seals, and incubated on an orbital shaker 400 rpm for 2 hours at room temperature. To determine the BRET ratio, the plate seal was removed and 25 µL of the Nanoluc substrate (Promega N1572) diluted 1:500 was added to each well and incubated for 1-2 minutes on an orbital shaker at 400 rpm. […] The BRET ratio was calculated as the fluorescence from the TAMRA/nanoluc bioluminescence.
Compound potency (IC50) and maximal displacement (% displacement) were estimated by computer-aided curve fitting using a 4-parameter logistic (4PL) non-linear model. […]
In this application, the inventors provide the data as IC50 values.
Turning to `CNC(=O)[C@H](Cc1cccnc1)NC(=O)[C@H](CCN)NC(=O)[C@@H]1CCC(=O)NCc2ccc(cc2)CC(=O)N[C@@H](C)C(=O)N[C@H]2CCC(=O)NCC[C@H](NC(=O)[C@H](CCC(N)=O)NC(=O)[C@H](Cc3c[nH]c4ccccc34)NC2=O)C(=O)N[C@@H](Cc2c[nH]c3ccccc23)CC(=O)N[C@@H](Cc2ccc3ccccc3c2)C(=O)NC(C)(C)C(=O)N1` [Compound 45, [4-Aminomethyl-phenylacetyl](1c)*AE(2c)WQ[Dab](2c)[beta-hTrp][2-Nal][Aib]E(1c)[Dab][3-(3-Pyridyl)-Ala]-[NHMe]], the “% displacement (hIL-23R binding)” value turned out to be 104% and the IC50 is 4.2 nM.

The compound `CNC(=O)[C@H](Cc1cccnc1)NC(=O)[C@H](CCN)NC(=O)[C@@H]1CCC(=O)NCc2ccc(cc2)CC(=O)N[C@@H](C)C(=O)N[C@H]2CCC(=O)NCC[C@H](NC(=O)[C@H](CCC(N)=O)NC(=O)[C@H](Cc3c[nH]c4ccccc34)NC2=O)C(=O)N[C@@H](Cc2ccc(OCCN)cc2)C(=O)N[C@@H](Cc2c[nH]c3ncccc23)C(=O)NC(C)(C)C(=O)N1` [Compound 44, [4-Aminomethyl-phenylacetyl](1c)*AE(2c)WQ[Dab](2c)[Y(2-aminoethoxy)][7-AzaTrp][Aib]E(1c)[Dab][3-(3-Pyridyl)-Ala]-[NHMe]] gave an IC50 of 0.27 nM.

Take `CNC(=O)[C@H](Cc1cncnc1)NC(=O)[C@H](CCN)NC(=O)[C@@H]1CCC(=O)NCc2ccc(cc2)CC(=O)N[C@@H](CO)C(=O)N[C@H]2CCC(=O)NCC[C@H](NC(=O)[C@H](CCC(N)=O)NC(=O)[C@H](Cc3c[nH]c4ccccc34)NC2=O)C(=O)N[C@@H](Cc2ccc(OCCN)cc2)C(=O)N[C@@H](Cc2ccc3ccccc3c2)C(=O)N[C@@](C)(CC(C)C)C(=O)N1` [Compound 19, [4-Aminomethyl-phenylacetyl](1c)*SE(2c)WQ[Dab](2c)[Y(2-aminoethoxy)][2-Nal][2-Me-Leu]E(1c)[Dab][3-(3,5-Pyrimidyl)-Ala]-[NHMe]]: the “% displacement (hIL-23R binding)” value amounted to 103% and the IC50 is 0.054 nM.

With `CC(C)C[C@]1(C)NC(=O)[C@H](Cc2ccc3ccccc3c2)NC(=O)[C@H](Cc2ccc(OCCN)cc2)NC(=O)[C@@H]2CCNC(=O)CC[C@H](NC(=O)[C@H](CO)NC(=O)Cc3ccc(cc3)CNC(=O)CC[C@@H](C(=O)NC[C@H](N[C@@H](Cc3cccnc3)C(N)=O)C(F)(F)F)NC1=O)C(=O)N[C@@H](Cc1c[nH]c3ccccc13)C(=O)N[C@@H](CCC(N)=O)C(=O)N2` [Compound 17, [4-Aminomethyl-phenylacetyl](1c)*SE(2c)WQ[Dab](2c)[Y(2-aminoethoxy)][2-Nal][2-Me-Leu]E(1c)[Gly-CF3][3-(3-Pyridyl)-Ala]-[NH2]], the “% displacement (hIL-23R binding)” value was 98%.

On to `CNC(=O)[C@H](Cc1cccnc1)NC(=O)[C@H](CCN)NC(=O)[C@@H]1CCC(=O)NCc2ccc(cc2)CC(=O)N[C@@H](CO)C(=O)N[C@H]2CCC(=O)NCC[C@H](NC(=O)[C@H](Cc3ccccc3)NC(=O)[C@H](Cc3c[nH]c4ccccc34)NC2=O)C(=O)N[C@@H](Cc2ccc(OCCN)cc2)C(=O)N[C@@H](Cc2ccc3ccccc3c2)C(=O)N[C@@](C)(CC(C)C)C(=O)N1` [Compound 23, [4-Aminomethyl-phenylacetyl](1c)*SE(2c)WF[Dab](2c)[Y(2-aminoethoxy)][2-Nal][2-Me-Leu]E(1c)[Dab][3-(3-Pyridyl)-Ala]-[NHMe]] ([X1]SEWF[Dab][AEF][2Nal][αMeL]E[Dab][3Pal]-NHMe; lactam 3-6, N-10), for which the “% displacement (hIL-23R binding)” value came out at 97%.

`CNC(=O)[C@H](Cc1cccnc1)NC(=O)[C@H](CCN)NC(=O)[C@@H]1CCC(=O)NCc2ccc(cc2)CC(=O)N[C@@H](C)C(=O)N[C@H]2CCC(=O)NCC[C@H](NC(=O)[C@H](CCC(N)=O)NC(=O)[C@H](Cc3c[nH]c4ccccc34)NC2=O)C(=O)N[C@@H](Cc2ccc(OCCN)cc2)C(=O)N[C@@H](Cc2c[nH]c3ccccc23)CC(=O)NC(C)(C)C(=O)N1` [Compound 46, [4-Aminomethyl-phenylacetyl](1c)*AE(2c)WQ[Dab](2c)[Y(2-aminoethoxy)][beta-hTrp][Aib]E(1c)[Dab][3-(3-Pyridyl)-Ala]-[NHMe]] yielded a 50% inhibitory concentration (IC50) of 57 nM.

In the case of `CNC(=O)[C@H](Cc1cccnc1)NC(=O)[C@H](CCN)NC(=O)[C@@H]1CCC(=O)NCc2ccc(cc2)CC(=O)N[C@@H](CO)C(=O)N[C@H]2CCC(=O)NCC[C@H](NC(=O)[C@H](CCC(=O)N3CCCC3)NC(=O)[C@H](Cc3c[nH]c4ccccc34)NC2=O)C(=O)N[C@@H](Cc2ccc(OCCN)cc2)C(=O)N[C@@H](Cc2ccc3ccccc3c2)C(=O)N[C@@](C)(CC(C)C)C(=O)N1` [Compound 27, [4-Aminomethyl-phenylacetyl](1c)*SE(2c)W[Q(pyrrolidin)][Dab](2c)[Y(2-aminoethoxy)][2-Nal][2-Me-Leu]E(1c)[Dab][3-(3-Pyridyl)-Ala]-[NHMe]] ([X1]SEWE(Pyrrolidide)[Dab][AEF][2Nal][αMeL]E[Dab][3Pal]-NHMe; lactam 3-6, N-10), the “% displacement (hIL-23R binding)” value came to 97%.

With `CC(C)C[C@]1(C)NC(=O)[C@H](Cc2ccc3ccccc3c2)NC(=O)[C@H](Cc2ccc(OCCN)cc2)NC(=O)[C@@H]2CSCC(=O)CSC[C@H](NC(=O)[C@H](CO)NC(=O)[C@H](Cc3cccnc3)NC(=O)CCNC(=O)CC[C@@H](C(=O)N[C@H](CCCNC(=N)N)C(N)=O)NC1=O)C(=O)N[C@@H](Cc1c[nH]c3ccccc13)C(=O)N[C@@H](CCC(N)=O)C(=O)N2` [Compound 1, [3-Aminopropanoyl](4c)*[3-(3-Pyridyl)-Ala]SC(2a)WQC(2a)[Y(2-aminoethoxy)][2-Nal][2-Me-Leu]E(4c)[{d}R]-[NH2]] ([βAla][3Pal]SCWQC[AEF][2Nal][αMeL]E[dR]-NH2; linker 4-7 via CH2COCH2; lactam N-11), the “% displacement (hIL-23R binding)” value stood at 105% and half-maximal inhibition (IC50) required 5.4 nM.

Still in this test, the particulars now being: read-out: % displacement (hIL-23R binding).
For the compound `CNC(=O)[C@H](Cc1cccnc1)NC(=O)[C@H](CCN)NC(=O)[C@@H]1CCC(=O)NCc2ccc(cc2)CC(=O)N[C@@H](C)C(=O)N[C@H]2CCC(=O)NCC[C@H](NC(=O)[C@H](CCC(N)=O)NC(=O)[C@H](Cc3c[nH]c4ccccc34)NC2=O)C(=O)N[C@@H](Cc2ccc(OCCN)cc2)C(=O)N[C@@H](Cc2c[nH]c3ncccc23)C(=O)NC(C)(C)C(=O)N1` [Compound 44, [4-Aminomethyl-phenylacetyl](1c)*AE(2c)WQ[Dab](2c)[Y(2-aminoethoxy)][7-AzaTrp][Aib]E(1c)[Dab][3-(3-Pyridyl)-Ala]-[NHMe]], the Emax turned out to be 100%.

For `CNC(=O)[C@H](Cc1cccnc1)NC(=O)[C@H](CCN)NC(=O)[C@@H]1CCC(=O)NCc2ccc(cc2)CC(=O)N[C@@H](C)C(=O)N[C@H]2CCC(=O)NCC[C@H](NC(=O)[C@H](CCC(N)=O)NC(=O)[C@H](Cc3c[nH]c4ccccc34)NC2=O)C(=O)N[C@@H](Cc2c[nH]c3c(F)cccc23)C(=O)N[C@@H](Cc2ccc3ccccc3c2)C(=O)NC(C)(C)C(=O)N1` [Compound 47, [4-Aminomethyl-phenylacetyl](1c)*AE(2c)WQ[Dab](2c)[7-F-Trp][2-Nal][Aib]E(1c)[Dab][3-(3-Pyridyl)-Ala]-[NHMe]], the Emax was 103%.

With `CNC(=O)[C@H](Cc1cccnc1)NC(=O)[C@H](CCN)NC(=O)[C@@H]1CCC(=O)NCc2ccc(cc2)CC(=O)N[C@@H](C)C(=O)N[C@H]2CCC(=O)NCC[C@H](NC(=O)[C@H](CCC(N)=O)NC(=O)[C@H](Cc3c[nH]c4ccccc34)NC2=O)C(=O)N[C@@H](Cc2ccc(OCCN)cc2)C(=O)N[C@@H](Cc2c[nH]c3ccccc23)CC(=O)NC(C)(C)C(=O)N1` [Compound 46, [4-Aminomethyl-phenylacetyl](1c)*AE(2c)WQ[Dab](2c)[Y(2-aminoethoxy)][beta-hTrp][Aib]E(1c)[Dab][3-(3-Pyridyl)-Ala]-[NHMe]], the Emax came out at 101%.

As to `CNC(=O)[C@H](Cc1cccnc1)NC(=O)[C@H](CCN)NC(=O)[C@@H]1CCC(=O)NCc2ccc(cc2)CC(=O)N[C@@H](CO)C(=O)N[C@H]2CCC(=O)NCC[C@H](NC(=O)[C@H](C)NC(=O)[C@H](Cc3c[nH]c4ccccc34)NC2=O)C(=O)N[C@@H](Cc2ccc(OCCN)cc2)C(=O)N[C@@H](Cc2ccc3ccccc3c2)C(=O)N[C@@](C)(CC(C)C)C(=O)N1` [Compound 22, [4-Aminomethyl-phenylacetyl](1c)*SE(2c)WA[Dab](2c)[Y(2-aminoethoxy)][2-Nal][2-Me-Leu]E(1c)[Dab][3-(3-Pyridyl)-Ala]-[NHMe]] ([X1]SEWA[Dab][AEF][2Nal][αMeL]E[Dab][3Pal]-NHMe; lactam 3-6, N-10), the Emax worked out at 96%.

Source of the values: patent EP4471049A1 (Zealand Pharma A/S, priority 2023, dated 2024).
